Laboratory results as given in PubChem BioAssay (NCI).
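GI50: concentration for 50% inhibition of growth. TGI marks complete inhibition of growth.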

Assays:
Test in all cases: NCI-60 cell line screen, 384-well format
KM12 colon = test system: KM12 colon
HCT-15 colon = test system: HCT-15 colon
HT29 colon = test system: HT29 colon
SF-539 CNS = test system: SF-539 CNS
U251 glioblastoma = test system: U251 glioblastoma
OVCAR-3 ovarian = test system: OVCAR-3 ovarian
HOP-92 NSCLC = test system: HOP-92 NSCLC
SK-MEL-28 melanoma = test system: SK-MEL-28 melanoma
SF-295 CNS = test system: SF-295 CNS
LOX IMVI melanoma = test system: LOX IMVI melanoma
SF-268 CNS = test system: SF-268 CNS
MOLT-4 leukemia = test system: MOLT-4 leukemia
ACHN renal = test system: ACHN renal
CCRF-CEM leukemia = test system: CCRF-CEM leukemia
HL-60(TB) leukemia = test system: HL-60(TB) leukemia
UACC-62 melanoma = test system: UACC-62 melanoma
A549 NSCLC = test system: A549 NSCLC
MCF7 breast = test system: MCF7 breast
TK-10 renal = test system: TK-10 renal
MDA-MB-435 melanoma = test system: MDA-MB-435 melanoma
NCI-H23 lung = test system: NCI-H23 lung
CAKI-1 renal = test system: CAKI-1 renal
HS 578T breast = test system: HS 578T breast
OVCAR-5 ovarian = test system: OVCAR-5 ovarian

With `C[C@@H](c1ccc2nccn2c1)n1nnc2ncc(-c3cnn(C)c3)nc21` the GI50 (KM12 colon) was 35 µM, the TGI (KM12 colon) was greater than 100 µM and the GI50 (HCT-15 colon) was greater than 100 µM. The TGI (HCT-15 colon) was greater than 100 µM, the GI50 (HT29 colon) was greater than 100 µM and the TGI (HT29 colon) was greater than 100 µM. The GI50 (SF-539 CNS) was greater than 100 µM, the TGI (SF-539 CNS) was greater than 100 µM and the GI50 (U251 glioblastoma) was greater than 100 µM. It also gave a TGI (U251 glioblastoma) greater than 100 µM, a GI50 (OVCAR-3 ovarian) greater than 100 µM and a TGI (OVCAR-3 ovarian) greater than 100 µM. The GI50 (HOP-92 NSCLC) was greater than 100 µM, the TGI (HOP-92 NSCLC) was greater than 100 µM and the GI50 (SK-MEL-28 melanoma) was greater than 100 µM. For the same compound, the TGI (SK-MEL-28 melanoma) was greater than 100 µM, the GI50 (SF-295 CNS) was 25.2 µM and the TGI (SF-295 CNS) was greater than 100 µM. It also gave a GI50 (LOX IMVI melanoma) greater than 65.9 µM, a TGI (LOX IMVI melanoma) greater than 100 µM and a GI50 (SF-268 CNS) greater than 100 µM. For the same compound, the TGI (SF-268 CNS) was greater than 100 µM, the GI50 (MOLT-4 leukemia) was 51.5 µM and the TGI (MOLT-4 leukemia) was greater than 100 µM. For the same compound, the GI50 (ACHN renal) was greater than 100 µM, the TGI (ACHN renal) was greater than 100 µM and the GI50 (CCRF-CEM leukemia) was greater than 71.6 µM. It also gave a TGI (CCRF-CEM leukemia) greater than 100 µM, a GI50 (HL-60(TB) leukemia) greater than 92.2 µM and a TGI (HL-60(TB) leukemia) greater than 100 µM. For the same compound, the GI50 (UACC-62 melanoma) was greater than 100 µM, the TGI (UACC-62 melanoma) was greater than 100 µM and the GI50 (A549 NSCLC) was greater than 100 µM. For the same compound, the TGI (A549 NSCLC) was greater than 100 µM, the GI50 (MCF7 breast) was greater than 100 µM and the TGI (MCF7 breast) was greater than 100 µM. For the same compound, the GI50 (TK-10 renal) was greater than 100 µM, the TGI (TK-10 renal) was greater than 100 µM and the GI50 (MDA-MB-435 melanoma) was greater than 100 µM. The TGI (MDA-MB-435 melanoma) was greater than 100 µM, the GI50 (NCI-H23 lung) was 20.6 µM and the TGI (NCI-H23 lung) was greater than 100 µM. For the same compound, the GI50 (CAKI-1 renal) was greater than 51.5 µM, the TGI (CAKI-1 renal) was greater than 100 µM and the GI50 (HS 578T breast) was greater than 100 µM. For the same compound, the TGI (HS 578T breast) was greater than 100 µM and the GI50 (OVCAR-5 ovarian) was greater than 100 µM.
